From ChEMBL document CHEMBL5346956, “Opportunities and Challenges for Inhibitors Targeting Citrate Transport and Metabolism in Drug Discovery” (J Med Chem, 2023)
pIC50, pKd, pKi: −log10 of the molar value. Each block holds one compound with its values, some of them ahead of it.

Key:
ATP-citrate synthase [1] = target: T1, ATP-citrate synthase (Homo sapiens, UniProt P53396); assay: Binding affinity to ACLY (unknown origin) assessed as inhibition constant
T1 sequence (P53396 whole entry): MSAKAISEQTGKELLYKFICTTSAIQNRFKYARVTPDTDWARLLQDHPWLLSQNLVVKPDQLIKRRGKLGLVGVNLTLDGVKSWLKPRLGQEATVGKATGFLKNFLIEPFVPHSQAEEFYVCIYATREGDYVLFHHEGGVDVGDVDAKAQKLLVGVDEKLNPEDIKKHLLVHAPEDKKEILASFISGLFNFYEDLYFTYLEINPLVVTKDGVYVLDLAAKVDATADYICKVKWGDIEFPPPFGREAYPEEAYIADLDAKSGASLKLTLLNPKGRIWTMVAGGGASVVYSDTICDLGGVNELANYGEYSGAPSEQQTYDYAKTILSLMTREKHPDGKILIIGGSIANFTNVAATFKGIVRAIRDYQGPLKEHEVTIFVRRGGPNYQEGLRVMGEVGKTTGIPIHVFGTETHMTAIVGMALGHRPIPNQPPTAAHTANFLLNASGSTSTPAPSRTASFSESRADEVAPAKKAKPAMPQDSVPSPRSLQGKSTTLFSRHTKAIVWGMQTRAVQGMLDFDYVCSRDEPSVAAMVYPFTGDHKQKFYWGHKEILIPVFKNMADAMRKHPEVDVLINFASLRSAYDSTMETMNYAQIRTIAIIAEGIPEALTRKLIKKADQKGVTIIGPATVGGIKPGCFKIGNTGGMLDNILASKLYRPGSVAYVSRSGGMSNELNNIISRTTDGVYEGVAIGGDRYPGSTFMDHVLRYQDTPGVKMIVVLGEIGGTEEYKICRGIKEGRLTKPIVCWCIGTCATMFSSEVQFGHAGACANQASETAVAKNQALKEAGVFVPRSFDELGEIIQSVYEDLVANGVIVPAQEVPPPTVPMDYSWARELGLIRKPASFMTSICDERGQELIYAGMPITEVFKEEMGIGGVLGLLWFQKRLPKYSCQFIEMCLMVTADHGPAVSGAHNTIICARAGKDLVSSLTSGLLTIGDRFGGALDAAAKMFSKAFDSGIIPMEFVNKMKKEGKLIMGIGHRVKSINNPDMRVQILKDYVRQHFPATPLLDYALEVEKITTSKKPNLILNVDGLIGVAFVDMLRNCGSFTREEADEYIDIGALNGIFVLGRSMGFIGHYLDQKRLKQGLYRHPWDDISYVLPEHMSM

[2] = Inhibition of mouse mINDY in HEK293 cells; assay type: cell-based
[3] = target: T2, Na(+)/dicarboxylate cotransporter 3 (Homo sapiens, UniProt Q8WWT9); assay: Inhibition of human SLC13A3 in HepG2 cells by measuring […] uptake; assay type: cell-based
T2 sequence (Q8WWT9 whole entry): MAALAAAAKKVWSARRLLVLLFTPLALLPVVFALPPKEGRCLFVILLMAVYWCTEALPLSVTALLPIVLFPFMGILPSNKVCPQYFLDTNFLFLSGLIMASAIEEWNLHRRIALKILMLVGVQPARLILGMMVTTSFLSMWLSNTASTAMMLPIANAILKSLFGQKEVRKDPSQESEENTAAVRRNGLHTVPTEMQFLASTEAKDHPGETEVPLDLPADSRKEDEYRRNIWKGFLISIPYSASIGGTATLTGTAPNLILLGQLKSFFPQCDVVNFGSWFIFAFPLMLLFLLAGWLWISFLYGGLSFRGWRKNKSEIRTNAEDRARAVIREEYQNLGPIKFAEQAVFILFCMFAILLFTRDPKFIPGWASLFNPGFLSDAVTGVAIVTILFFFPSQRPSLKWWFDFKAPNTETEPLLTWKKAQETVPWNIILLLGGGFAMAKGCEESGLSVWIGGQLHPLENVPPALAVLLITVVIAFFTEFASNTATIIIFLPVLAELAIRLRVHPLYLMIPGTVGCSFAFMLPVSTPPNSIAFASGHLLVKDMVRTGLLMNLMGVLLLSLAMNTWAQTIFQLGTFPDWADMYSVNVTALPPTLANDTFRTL

[4] = Metabolic stability in rat liver microsomes assessed as half life; assay type: ADME, Microsome
ATP-citrate synthase [5] = target: T1, ATP-citrate synthase
in vitro = conditions: human, liver microsomes
ATP-citrate synthase [6] = target: T1, ATP-citrate synthase; remark: listed apart in the source
HeLa = assay: Antiproliferative activity against human HeLa cells assessed as inhibition of cell growth measured after 24 hrs; assay type: functional, cell-based
ATP-citrate synthase [7] = target: T1, ATP-citrate synthase; remark: listed apart in the source
[8] = target: Na(+)/citrate cotransporter (Homo sapiens, UniProt Q86YT5); assay: Inhibition of recombinant human SLC13A5 in HEK293T cells; assay type: cell-based
[9] = target: T3, Tricarboxylate transport protein, mitochondrial (Homo sapiens, UniProt P53007); assay: Inhibition of human SLC25A1 at 1 uM relative to control
Target sequence in this assay (P53007 14-311 limits assumed): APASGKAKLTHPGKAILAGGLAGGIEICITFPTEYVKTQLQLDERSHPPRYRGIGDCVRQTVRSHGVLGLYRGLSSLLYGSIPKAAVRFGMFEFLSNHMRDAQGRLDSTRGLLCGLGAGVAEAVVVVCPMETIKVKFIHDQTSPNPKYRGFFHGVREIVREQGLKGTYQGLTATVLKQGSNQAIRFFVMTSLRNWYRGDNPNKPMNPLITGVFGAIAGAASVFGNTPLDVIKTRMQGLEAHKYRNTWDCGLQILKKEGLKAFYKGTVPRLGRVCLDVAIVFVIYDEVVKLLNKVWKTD

[10] = target: T3, Tricarboxylate transport protein, mitochondrial; assay: Binding affinity to human SLC25A1 assessed as inhibition constant
Target sequence in this assay (P53007 whole entry): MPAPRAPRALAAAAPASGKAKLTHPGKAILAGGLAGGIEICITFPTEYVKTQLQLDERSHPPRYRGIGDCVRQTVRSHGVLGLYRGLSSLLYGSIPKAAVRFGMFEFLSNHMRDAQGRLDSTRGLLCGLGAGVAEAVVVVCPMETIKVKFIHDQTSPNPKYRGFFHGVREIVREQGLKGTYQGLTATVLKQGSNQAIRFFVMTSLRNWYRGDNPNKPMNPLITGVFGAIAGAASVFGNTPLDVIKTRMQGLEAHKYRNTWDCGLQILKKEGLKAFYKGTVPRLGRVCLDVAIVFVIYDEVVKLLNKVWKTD

[11] = target: T3, Tricarboxylate transport protein, mitochondrial; assay: Inhibition of SLC25A1 (unknown origin) at 1 uM relative to control
Target sequence in this assay (P53007 14-311 limits assumed): as the sequence (P53007 14-311 limits assumed) above

ATP-citrate synthase [12] = target: T4, ATP-citrate synthase (Rattus norvegicus, UniProt P16638); assay: Binding affinity to rat ACLY assessed as inhibition constant measured after 20 mins
T4 sequence (P16638 whole entry): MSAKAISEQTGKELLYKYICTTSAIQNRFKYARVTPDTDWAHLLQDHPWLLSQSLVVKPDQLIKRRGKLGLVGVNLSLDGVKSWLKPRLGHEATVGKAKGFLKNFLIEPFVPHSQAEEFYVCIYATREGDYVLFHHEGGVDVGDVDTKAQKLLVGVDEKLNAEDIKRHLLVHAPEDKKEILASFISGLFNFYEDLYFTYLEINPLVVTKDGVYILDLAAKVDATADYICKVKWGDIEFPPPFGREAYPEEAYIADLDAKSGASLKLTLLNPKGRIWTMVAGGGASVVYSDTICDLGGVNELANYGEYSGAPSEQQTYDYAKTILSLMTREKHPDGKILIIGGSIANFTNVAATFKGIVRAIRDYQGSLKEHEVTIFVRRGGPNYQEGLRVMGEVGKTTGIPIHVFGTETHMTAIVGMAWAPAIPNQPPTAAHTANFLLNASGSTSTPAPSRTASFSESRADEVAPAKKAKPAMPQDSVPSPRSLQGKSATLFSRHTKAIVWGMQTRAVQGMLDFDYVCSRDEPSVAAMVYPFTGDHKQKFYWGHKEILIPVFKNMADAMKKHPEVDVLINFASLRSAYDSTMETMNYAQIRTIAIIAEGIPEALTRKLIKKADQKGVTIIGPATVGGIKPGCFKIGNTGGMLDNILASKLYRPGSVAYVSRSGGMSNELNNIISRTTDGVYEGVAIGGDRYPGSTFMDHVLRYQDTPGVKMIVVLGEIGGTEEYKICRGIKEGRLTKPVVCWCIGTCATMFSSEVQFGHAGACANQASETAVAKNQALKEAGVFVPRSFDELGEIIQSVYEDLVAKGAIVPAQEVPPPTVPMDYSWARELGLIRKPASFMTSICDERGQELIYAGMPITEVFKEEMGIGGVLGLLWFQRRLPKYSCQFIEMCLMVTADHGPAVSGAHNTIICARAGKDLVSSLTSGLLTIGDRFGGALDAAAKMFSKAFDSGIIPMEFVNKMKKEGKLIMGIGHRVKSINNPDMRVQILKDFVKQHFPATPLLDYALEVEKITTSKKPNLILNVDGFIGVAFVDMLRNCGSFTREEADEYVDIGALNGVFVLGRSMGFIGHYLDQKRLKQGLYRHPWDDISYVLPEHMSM

Chain of Na(+)/citrate cotransporter (Q86YT5 whole entry): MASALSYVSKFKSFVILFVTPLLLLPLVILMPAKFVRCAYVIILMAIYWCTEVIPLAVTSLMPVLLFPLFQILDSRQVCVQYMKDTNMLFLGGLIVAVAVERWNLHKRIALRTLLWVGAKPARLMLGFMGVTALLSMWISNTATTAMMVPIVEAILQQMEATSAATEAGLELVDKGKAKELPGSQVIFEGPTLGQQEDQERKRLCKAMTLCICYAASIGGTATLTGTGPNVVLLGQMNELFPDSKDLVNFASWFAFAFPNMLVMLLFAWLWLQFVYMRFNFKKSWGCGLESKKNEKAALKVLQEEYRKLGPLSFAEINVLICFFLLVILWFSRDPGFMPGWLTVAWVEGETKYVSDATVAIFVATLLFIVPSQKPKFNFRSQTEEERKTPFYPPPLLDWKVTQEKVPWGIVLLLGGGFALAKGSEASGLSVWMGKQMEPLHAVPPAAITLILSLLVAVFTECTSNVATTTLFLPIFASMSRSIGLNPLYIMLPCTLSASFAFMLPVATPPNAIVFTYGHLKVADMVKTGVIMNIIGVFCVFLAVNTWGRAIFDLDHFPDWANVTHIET

Compound: O=C(O)CC(CSCCCCCCc1ccc(Cl)cc1Cl)C(=O)O (stereo unspecified)
- pKi (ATP-citrate synthase [1]): 5.92

Compound: C[C@@H]1C[C@H]2O[C@@H]2/C=C\C=C\C(=O)Cc2c(Cl)c(O)cc(O)c2C(=O)O1 [RADICICOL]
- pKi (ATP-citrate synthase [1]): 4.89

Compound: O=C(Nc1cc(Cl)cc(C(F)(F)F)c1)OCCC(F)(F)F
- pIC50 [2]: 6.74
- pIC50 [3]: 6.80

Compound: [2H]C([2H])(CCCCC(C)(C)C(=O)O)C(O)C([2H])([2H])CCCCC(C)(C)C(=O)O
- half-life [4]: > 2.42 h

Compound: O=C(O)CC(O)(CCCCCCCCc1ccc(Cl)cc1Cl)C(=O)O (stereo unspecified)
- pKi (ATP-citrate synthase [1]): 5.92

Compound: COC(=O)c1cc(Cl)c(O)c(S(=O)(=O)Nc2cc(-c3ccccc3)c(F)cc2F)c1
- pIC50 (ATP-citrate synthase [5]): 8.68
- pKi (ATP-citrate synthase [1]): 8.15
- half-life (in vitro): 0.056 h
- pKd (ATP-citrate synthase [6]): 8.66

Compound: CC(C)(CCCC/C=C/CCCCCC(C)(C)C(=O)O)C(=O)O
- pIC50 (ATP-citrate synthase [7]): 5.27

Compound: O=C(O)C[C@](O)(C[C@H](O)CCCCCCc1ccc(Cl)cc1Cl)C(=O)O
- pKi (ATP-citrate synthase [1]): 6.00

Compound: O=C(O)CC(O)(CSCCCCCCc1ccc(Cl)cc1Cl)C(=O)O (stereo unspecified)
- pKi (ATP-citrate synthase [1]): 5.92

Compound: Cc1nc(OC(F)F)ccc1C(C)N1CCc2c(C#N)c(Cl)nc(NCC#N)c2C1 (stereo unspecified)
- pIC50 [8]: > 7.30
- pIC50 [3]: > 7.30

Compound: [2H]C([2H])(CCCCC(C)(C)C(=O)O)C([2H])(O)C([2H])([2H])CCCCC(C)(C)C(=O)O
- half-life [4]: > 2.42 h

Compound: [2H]C(O)(CCCCCC(C)(C)C(=O)O)CCCCCC(C)(C)C(=O)O
- half-life [4]: > 2.42 h

Compound: [2H]C(O)(CCCCCC(C(=O)O)(C([2H])([2H])[2H])C([2H])([2H])[2H])CCCCCC(C(=O)O)(C([2H])([2H])[2H])C([2H])([2H])[2H]
- half-life [4]: > 2.42 h

Further lines, results first:

- pIC50 (HeLa): 6.30
Compound: O=c1c(O)c(-c2ccc(O)cc2)oc2c(O)c(O)cc(O)c12 [HERBACETIN]

- half-life (in vitro): 8.85 h
Compound: O=C1NCc2ccccc2-c2cc(c(F)cc2F)NS(=O)(=O)c2cc1cc(Cl)c2O

- inhibition [9]: 84.7%
- pKi [10]: 4.32
- inhibition [11]: 84.7%
Compound: O=C(O)c1ccc(Cl)c(S(=O)(=O)Nc2cccc([N+](=O)[O-])c2)c1

- pKi (ATP-citrate synthase [1]): 5.92
Compound: O=C(O)CC(O)(CC(=O)CCCCCCc1ccc(Cl)cc1Cl)C(=O)O (stereo unspecified)

- inhibition [11]: 95%
Compound: O=C(O)c1cccc(C(=O)O)c1C(=O)O

- pKi (ATP-citrate synthase [12]): 6.00
Compound: O=C(O)C[C@@]1(O)C[C@@H](Cc2ccc(Cl)cc2Cl)OC1=O
